Measured values reported in PubChem BioAssay AID720512 (Broad Institute, 2013).
Active and inactive are the calls of the source. No rule for the calls is given here.

Target: Toxin B (TcdB) glycohydrolase, Clostridioides difficile 630
Test: TcdB glycohydrolase inhibitors, dose response, biochemical, cherry-pick, plate reader (AID 720512)
Conditions: recombinant TcdB glycohydrolase activity

Row | Compound | activity change, negative = inhibition (at 19.5 µM (top of the series)) | also measured
1 | COc1ccc(CC(=O)NNC(=S)NC(=O)c2cccnc2)cc1 | inactive | 
2 | O=C(Nc1ccc(O)cc1)/C(=C/c1ccco1)NC(=O)c1ccccc1 | inactive | 
3 | O=C(O)c1ccc2c(c1)N(Cc1cccc(F)c1)C(=O)CS2 | inactive | 
4 | Cc1cc(C)nc(NC(N)=NCCc2ccccc2)n1 | inactive | 
5 | Cc1cccn2c(CN(C)C3CCCc4ccccc43)c(C(=O)N3CCOCC3)nc12 (centres undefined) | inactive | 
6 | C[C@@H]1CN([C@@H](C)CO)C(=O)c2c(c3ccccc3n2C)-c2ccccc2CO[C@@H]1CN(C)C |  | activity change, negative = inhibition (at 21 µM (top of the series)): inactive
7 | Cc1cc(C)c(C)c(S(=O)(=O)N2CCCCC2C(=O)O)c1C (centres undefined) | inactive | 
8 | CN(C)CCNc1ccc(CO)c2sc3ccc(O)cc3c(=O)c12 | inactive | 
9 | C/C(=N\NC(=O)c1ccccc1O)c1cccc(NC(=O)c2ccccc2)c1 | inactive | 
10 | CN(C)c1ccc(NC(=O)/C=C/c2c(Cl)cccc2Cl)cc1 | inactive | 
11 | COc1cc(/C=N/N2C(=O)C3C4C=CC(CC4)C3C2=O)ccc1O (centres undefined) | inactive | 
12 | O=S(=O)(Oc1ccccc1/C=N/n1cnnc1)c1ccccc1 |  | AC50: > 39 µM (inactive)
13 | CCOC(CCNC(=O)c1cn(CCOC)c(=O)c2c1c1ccccc1n2C)OCC | inactive | 
14 | O=C(O)c1ccc(-n2nnc3ccccc32)c([N+](=O)[O-])c1 | inactive | 
15 | O=S(=O)(Nc1ccc(O)cc1)c1cccc2cccnc12 | inactive | 
16 | O=c1onc(-c2ccccc2)n1Cc1ccc([N+](=O)[O-])cc1 | inactive | 
17 | CNC(=O)C1CCN(S(=O)(=O)c2c(C)noc2/C=C/c2ccccc2F)CC1 | inactive | 
18 | Cc1ccc(C(=O)Nc2ccc(N3CCCCC3)cc2)cc1 | inactive | 
19 | Cc1ccc(S(=O)(=O)Oc2ccccc2/C=C2/SC(=O)NC2=O)cc1 | inactive | 
20 | COc1ccc(-c2csc(NC(=O)c3ccccc3F)c2C(=O)O)cc1 | inactive | 
21 | COc1ccc(CNCCc2ccc3c(c2)OCO3)cc1Br | inactive | 
22 | CN1C(=O)C(c2nnc(Nc3cccc4ccccc34)s2)C2CC1(C)Oc1ccccc12 (centres undefined) | inactive | 
23 | Clc1ccc(-c2nc3ccc(Cl)cn3c2Cc2ccccc2)cc1 | inactive | 

Row | Compound | activity change, negative = inhibition (at 19.5 µM (top of the series)) | also measured
24 | Cc1cccc(/C=C/c2onc(C)c2S(=O)(=O)N2CCC(C(=O)NC(C)C)CC2)c1 | inactive | 
25 | Cc1ccc(C(=O)NC(=O)OCCn2c(C)cnc2[N+](=O)[O-])cc1 | inactive | 
26 | CC12CCC(=O)N1C(C(=O)OCc1c(Cl)cccc1Cl)CS2 (centres undefined) | inactive | 
27 | CCCN1CCN(C(=O)C2CCN(S(=O)(=O)c3c(C)noc3/C=C/c3ccc(C)cc3)CC2)CC1 | inactive | 
28 | CC(=O)Nc1ccc(N(C(=O)c2ccco2)C(C(=O)NC2CCCC2)c2cccs2)cc1 (centres undefined) | inactive | 
29 | Cc1ccc(C)c(CN2C(=O)COc3ccc(C(=O)c4ccccc4C(=O)O)cc32)c1 | inactive | 
30 | CN(CCN1CCOCC1)C(=O)CC1C(=O)NCCN1Cc1ccccc1C(F)(F)F (centres undefined) | inactive | 
31 | CCOc1ccc(NC(=O)c2ccc(CC)s2)c([N+](=O)[O-])c1 | inactive | 
32 | CCNC(=O)C[C@H]1CC[C@@H]2[C@@H](COc3ccc(NC(=O)c4ccc5c(c4)OCO5)cc3C(=O)N2C)O1 |  | AC50: > 39 µM (inactive)
33 | COc1ccc(/C=C2\CCCCC2=O)cc1 | inactive | 
34 | Cc1cc(C)c(S(=O)(=O)c2ccc(Cl)cc2C)c(Cl)n1 | inactive | 
35 | Cc1ccc(S(=O)(=O)Oc2cccc(/C=N/Nc3ccc(C(=O)O)cc3)c2)cc1 | inactive | 
36 | COc1cc([N+](=O)[O-])ccc1NC(=O)Oc1ccc(NC(C)=O)cc1 | inactive | 
37 | CCOC(=O)c1ccc(N=c2sc(C(=O)OC)cc(=O)n2CCCN2CCOCC2)cc1 | inactive | 
38 | O=C(N[C@@H](Cc1c[nH]c2ccccc12)C(=O)O)C1CCN(S(=O)(=O)c2cccs2)CC1 | inactive | 
39 | Cc1ccc(C(=O)Nc2scc(-c3ccccc3)c2C(=O)O)cc1 |  | AC50: > 39 µM (inactive)
40 | CC(C)(C)C(=O)C1=C(O)C(=O)N(c2ccccc2)C1c1ccccc1 (centres undefined) | inactive | 
41 | CN1C(=O)c2cc(NC(=O)Nc3ccccc3Cl)ccc2OC[C@H]2O[C@@H](CC(=O)NCCCN3CCOCC3)CC[C@H]21 |  | activity change, negative = inhibition (at 21 µM (top of the series)): inactive
42 | Cc1ccc(NS(=O)(=O)c2ccc(C)c(NC(=S)NCCN3CCOCC3)c2)c(C)c1 | inactive | 
43 | C/C(=N\NC(=O)CSc1nc2ccccc2c(=O)n1-c1ccccc1C)c1cccs1 | inactive | 
44 | CC[n+]1ccc(/C=C/c2ccc(N(C)C)cc2)c2ccccc21 | inactive | 
45 | CCCNC(=O)C[C@H]1CC[C@@H]2[C@H](COc3ccc(NC(=O)c4ccc(Cl)cc4)cc3C(=O)N2C)O1 |  | AC50: > 39 µM (inactive)
46 | CCOc1ccccc1/C=C/c1onc(C)c1S(=O)(=O)N1CCC(C(=O)N(CC)CC)CC1 | inactive | 

Row | Compound | activity change, negative = inhibition (at 19.5 µM (top of the series)) | also measured
47 | Cc1cc(C(=O)Nc2ncc(C)s2)c2ccccc2n1 | inactive | 
48 | COc1ccc(S(=O)(=O)N2CCOCC2)cc1NC(=O)COC(=O)c1[nH]c(C)c(C(C)=O)c1C | inactive | 
49 | Cc1cc(C)nc(/N=C(\N)Nc2ccccc2-c2ccccc2)n1 | inactive | 
50 | CCNC(=O)C[C@H]1CC[C@@H]2[C@@H](COc3ccc(NC(C)=O)cc3C(=O)N2C)O1 | inactive | 
51 | Cc1ccc(-c2cc(C(=O)OC3CCOC3=O)c3ccccc3n2)c(C)c1 (centres undefined) | inactive | 
52 | Fc1ccccc1Nc1n[nH]c(=S)s1 | inactive | 
53 | COC(=O)Cc1ccc(NC(=S)NCc2ccco2)cc1 | inactive | 
54 | CC1(C)CC(=O)C(C=Nc2ccc(O)cc2)=C(O)C1 | inactive | 
55 | COc1ccc(C2=NS(=O)(=O)N(C)C(C(=O)N(C)Cc3ccccc3)=C2)cc1 | inactive | 
56 | CC(=O)Nc1ccc(OC(=O)Oc2ccc(NC(C)=O)cc2)cc1 | inactive | 
57 | CNc1n[nH]c(=S)s1 | inactive | 
58 | O=C(Nc1ccc(N2CCOCC2)c(Cl)c1)c1ccc(Cl)cc1 |  | AC50: > 39 µM (inactive)
59 | CC1=C(C(=O)OCC2CCCO2)C(c2coc3ccccc3c2=O)C2=C(CCCC2=O)N1 (centres undefined) | inactive | 
60 | CCOC(=O)/C=c1/s/c(=C/c2ccc3cc(OC)ccc3c2)c(=O)n1CC(=O)NCC1CCCO1 (centres undefined) | inactive | 
61 | Cn1cc(S(=O)(=O)CC(=O)N2CCCc3ccccc32)c2ccccc21 | inactive | 
62 | CCOc1ccccc1/C=C/c1onc(C)c1S(=O)(=O)N1CCC(C(=O)NC)CC1 |  | AC50: > 39 µM (inactive)
63 | N#Cc1ccc(C(=O)N/N=C/c2cn(CC(=O)O)c3ccccc23)c(F)c1 | inactive | 
64 | Cn1c(=O)c2[nH]c(=S)n(Cc3ccccc3)c2n(C)c1=O |  | AC50: 18.2 µM
65 | COc1cc(NC(=O)CSc2nc3[nH]ncc3c(=O)n2-c2ccccc2C)cc(OC)c1OC | inactive | 
66 | CCC(=O)N1CC[C@@H]2[C@H]1c1cc(-c3ccc(OC)cc3)ccc1N(C)[C@H]2CO |  | AC50: > 42 µM (inactive)
67 | CCOc1ccccc1NC(=O)CCNS(=O)(=O)c1cccc2nonc12 | inactive | 
68 | CCOc1ccccc1/C=C/c1onc(C)c1S(=O)(=O)N1CCC(C(=O)NC(C)(C)C)CC1 | inactive | 
69 | Cc1c(Cl)cccc1NC(=O)C1Cc2ccccc2CN1C(=O)c1ccccc1 (centres undefined) | inactive | 

Row | Compound | activity change, negative = inhibition (at 19.5 µM (top of the series)) | also measured
70 | CC1=NCCc2c1[nH]c1cc(O)ccc21 |  | AC50: 9.94 µM
71 | CSc1nc(Cl)cc(Nc2ccc(O)cc2)n1 | inactive | 
72 | COc1ccc(C2(CNC(=O)c3ccc(OC)c([N+](=O)[O-])c3)CCCCC2)cc1OC |  | AC50: > 39 µM (inactive)
73 | COc1c2ccc(C(=O)NCCCCc3ccccc3)cc2nn1C | inactive | 
74 | CCc1ccc(NC(=O)c2cc(C)on2)cc1 | inactive | 
75 | NNC(=O)CCc1nc2ccc(O)cc2[nH]1 | inactive | 
76 | COC(=O)Cc1ccc(NC(=S)NCc2ccc(OC)cc2)cc1 | inactive | 
77 | CCCCn1c(CN2CCN(C(=O)c3ccco3)CC2)nc2c1c(=O)n(C)c(=O)n2C | inactive | 
78 | CCCCc1[nH]c(=O)c(C#N)c2c1CCCC2 | inactive | 
79 | O=C(C[C@H]1C[C@@H]2c3cc(NC(=O)c4ccc5c(c4)OCO5)ccc3O[C@@H]2[C@@H](CO)O1)NCc1cccc(F)c1 | inactive | 
80 | CC(=O)N1CC[C@@H]2[C@@H](CO)N(C)c3ccc(-c4ccccc4)cc3[C@@H]21 |  | AC50: > 42 µM (inactive)
81 | CNC(=O)C[C@H]1CC[C@@H]2[C@H](COc3ccc(NS(=O)(=O)c4ccccc4C)cc3C(=O)N2C)O1 |  | activity change, negative = inhibition (at 21 µM (top of the series)): inactive
82 | Cc1[nH]c(=O)c(C#N)c2c1CCCC2 | inactive | 
83 | Oc1ccccc1-c1cnc2cccnn12 | inactive | 
84 | CC(C)OC(=O)C(=O)NNc1ccccc1 | inactive | 
85 | COc1cc(/C=N/NC(=O)Cn2nnc3ccccc32)ccc1O | inactive | 
86 | CCC(=O)Nc1ccc2c(c1)OC[C@@H](C)N(C(=O)NC(C)C)C[C@H](C)[C@H](OC)CN(C)C2=O | inactive | 
87 | CC(=O)Nc1ccc(NC(=O)CN2CCN(c3ccccn3)CC2)cc1 | inactive | 
88 | CN1C(=O)CSc2ccc(NC(=O)N3CCc4ccccc43)cc21 | inactive | 
89 | NC(=O)CC(NC(=O)c1ccccc1)c1ccc(NCCc2ccc(F)cc2)c([N+](=O)[O-])c1 (centres undefined) | inactive | 
